Assay results from ChEMBL document CHEMBL5236606, “Synthesis, Structure-Activity Relationships, and In Vivo Evaluation of Novel C-17 Amine Derivatives Based on GSK3640254 as HIV-1 Maturation Inhibitors with Broad Spectrum Activity” (J Med Chem, 2022).
≈ marks a conversion by molar mass, not a printed value.

Experiments:
[1] = tested on: Human immunodeficiency virus 1; assay: Antiviral activity against wild type HIV-1 NLRepRlucP373S harboring V370A mutant infected in human MT2 cells assessed as inhibition of viral growth measured after 4 to 5 days by Dual luciferase reporter assay; assay type: functional, organism-based; conditions: Human immunodeficiency virus 1, NLRepRlucP373S
[2] = tested on: Human immunodeficiency virus 1; assay: Antiviral activity against wild type HIV-1 NLRepRlucP373S harboring deltaV370 mutant infected in human MT2 cells assessed as inhibition of viral growth measured after 4 to 5 days by Dual luciferase reporter assay; assay type: functional, organism-based; conditions: Human immunodeficiency virus 1, NLRepRlucP373S
[3] = tested on: Human immunodeficiency virus 1; assay: Antiviral activity against wild type HIV-1 NLRepRlucP373S infected in human MT2 cells assessed as inhibition of viral growth measured after 4 to 5 days by Dual luciferase reporter assay; assay type: functional, organism-based; conditions: Human immunodeficiency virus 1, NLRepRlucP373S
[4] = tested on: Human immunodeficiency virus 1; assay: Antiviral activity against wild type HIV-1 NLRepRlucP373S harboring T332S/V362I/prR41G mutant infected in human MT2 cells assessed as inhibition of viral growth measured after 4 to 5 days by Dual luciferase reporter assay; assay type: functional, organism-based; conditions: Human immunodeficiency virus 1, NLRepRlucP373S
[5] = Fold resistance, ratio of EC50 for antiviral activity against wild type HIV-1 NLRepRlucP373S infected in human MT2 cells assessed as inhibition of viral growth in presence of 10% FBS and 40% human serum supplemented with 27mg/mL of human serum albumin to EC50 for antiviral activity against wild type HIV-1 NLRepRlucP373S infected in human MT2 cells assessed as inhibition of viral growth; assay type: functional, Human immunodeficiency virus 1
[6] = Cytotoxicity against human MT2 cells assessed as reduction in cell viability; assay type: toxicity, cell-based
[7] = tested on: Human immunodeficiency virus 1; assay: Antiviral activity against wild type HIV-1 NLRepRlucP373S harboring A326T/V362I/V370A mutant infected in human MT2 cells assessed as inhibition of viral growth measured after 4 to 5 days by Dual luciferase reporter assay; assay type: functional, organism-based; conditions: Human immunodeficiency virus 1, NLRepRlucP373S
[8] = tested on: Human immunodeficiency virus 1; assay: Antiviral activity against wild type HIV-1 NLRepRlucP373S harboring R361K/V362I/L363M mutant infected in human MT2 cells assessed as inhibition of viral growth measured after 4 to 5 days by Dual luciferase reporter assay; assay type: functional, organism-based; conditions: Human immunodeficiency virus 1, NLRepRlucP373S
[9] = Metabolic stability in human liver microsomes assessed as half life at 0.5 uM in presence of NADPH by LC-MS/MS analysis; assay type: ADME, Microsome
[10] = Metabolic stability in rat liver microsomes assessed as half life at 0.5 uM in presence of NADPH by LC-MS/MS analysis; assay type: ADME, Microsome
[11] = Metabolic stability in dog liver microsomes assessed as half life at 0.5 uM in presence of NADPH by LC-MS/MS analysis; assay type: ADME, Canis lupus familiaris, Microsome
[12] = biological target: Albumin (Homo sapiens, UniProt P02768); assay: Protein binding in human serum albumin assessed as fraction bound at 53 nM incubated for 1 hrs by ultracentrifugation method; assay type: ADME, cell-free; conditions: read-out: PPB (converted)
Chain of Albumin (P02768 whole entry): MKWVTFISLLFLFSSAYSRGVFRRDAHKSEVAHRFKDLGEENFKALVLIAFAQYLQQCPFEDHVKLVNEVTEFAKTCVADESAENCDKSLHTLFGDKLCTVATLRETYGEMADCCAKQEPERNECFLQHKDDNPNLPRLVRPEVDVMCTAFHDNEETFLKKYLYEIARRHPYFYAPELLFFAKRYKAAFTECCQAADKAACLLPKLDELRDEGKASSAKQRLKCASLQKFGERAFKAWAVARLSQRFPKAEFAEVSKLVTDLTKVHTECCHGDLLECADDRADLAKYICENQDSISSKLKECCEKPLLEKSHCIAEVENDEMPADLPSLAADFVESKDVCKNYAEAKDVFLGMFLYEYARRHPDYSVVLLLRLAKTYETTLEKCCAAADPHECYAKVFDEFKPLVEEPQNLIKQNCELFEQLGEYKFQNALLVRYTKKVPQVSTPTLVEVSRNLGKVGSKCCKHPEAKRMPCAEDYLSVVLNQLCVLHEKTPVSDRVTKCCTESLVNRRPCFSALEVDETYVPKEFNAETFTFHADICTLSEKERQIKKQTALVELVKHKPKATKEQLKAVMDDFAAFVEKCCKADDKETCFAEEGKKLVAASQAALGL

[13] = Clearance in Sprague-Dawley rat at 1 mg/kg, iv by LC-MS/MS analysis; assay type: ADME, organism-based; conditions: in vivo
[14] = Volume of distribution at steady state in Sprague-Dawley rat at 1 mg/kg, iv by LC-MS/MS analysis; assay type: ADME, organism-based; conditions: in vivo, read-out: Vdss
[15] = MRT in Sprague-Dawley rat at 1 mg/kg, iv by LC-MS/MS analysis; assay type: ADME, organism-based; conditions: in vivo
[16] = tested on: Human immunodeficiency virus 1; assay: Antiviral activity against wild type HIV-1 NLRepRlucP373S infected in human MT2 cells assessed as inhibition of viral growth measured after 4 to 5 days in presence of 10% FBS and 40% human serum supplemented with 27 mg/mL of human serum albumin by Dual luciferase reporter assay; assay type: functional, organism-based; conditions: Human immunodeficiency virus 1, NLRepRlucP373S
[17] = tested on: Human immunodeficiency virus 1; assay: Antiviral activity against wild type HIV-1 NLRepRlucP373S harboring V362I/V370A mutant infected in human MT2 cells assessed as inhibition of viral growth measured after 4 to 5 days by Dual luciferase reporter assay; assay type: functional, organism-based; conditions: Human immunodeficiency virus 1, NLRepRlucP373S
[18] = Solubility of compound in FaSSIF at pH 6.5; assay type: ADME
[19] = Solubility of the compound in FeSSIF at pH 5.0; assay type: ADME
[20] = Half life in Sprague-Dawley rat at 1 mg/kg, iv by LC-MS/MS analysis; assay type: ADME, organism-based; conditions: in vivo
[21] = AUCt in Sprague-Dawley rat at 5 mg/kg, po by LC-MS/MS analysis; assay type: ADME, organism-based; parameters: dose 5 mg/kg, route po; conditions: in vivo
[22] = Cmax in Sprague-Dawley rat at 5 mg/kg, po by LC-MS/MS analysis; assay type: ADME, organism-based; parameters: dose 5 mg/kg, route po; conditions: in vivo
[23] = Oral bioavailability in Sprague-Dawley rat at 5 mg/kg by LC-MS/MS analysis; assay type: ADME, organism-based; conditions: in vivo
[24] = Clearance in Beagle dog at 1 mg/kg, iv by LC-MS/MS analysis; assay type: ADME, organism-based, Canis lupus familiaris; conditions: in vivo
[25] = Volume of distribution at steady state in Beagle dog at 1 mg/kg, iv by LC-MS/MS analysis; assay type: ADME, organism-based, Canis lupus familiaris; conditions: in vivo, read-out: Vdss
[26] = Half life in Beagle dog at 1 mg/kg, iv by LC-MS/MS analysis; assay type: ADME, organism-based, Canis lupus familiaris; conditions: in vivo
[27] = MRT in Beagle dog at 1 mg/kg, iv by LC-MS/MS analysis; assay type: ADME, organism-based, Canis lupus familiaris; conditions: in vivo
[28] = AUCt in Beagle dog at 5 mg/kg, po administered as solution in 98% citrate buffer/2% sulfobutylether-beta-cyclodextrin by LC-MS/MS analysis; assay type: ADME, organism-based, Canis lupus familiaris; parameters: dose 5 mg/kg, route po; conditions: in vivo
[29] = Cmax in Beagle dog at 5 mg/kg, po administered as solution in 98% citrate buffer/2% sulfobutylether-beta-cyclodextrin by LC-MS/MS analysis; assay type: ADME, organism-based, Canis lupus familiaris; parameters: dose 5 mg/kg, route po; conditions: in vivo
[30] = Oral bioavailability in Beagle dog at 5 mg/kg administered as solution in 98% citrate buffer/2% sulfobutylether-beta-cyclodextrin by LC-MS/MS analysis; assay type: ADME, organism-based, Canis lupus familiaris; conditions: in vivo
[31] = AUCt in Beagle dog at 5 mg/kg, po administered as spray-dried dispersion in 99.5% water/0.5% methocel E4M by LC-MS/MS analysis; assay type: ADME, organism-based, Canis lupus familiaris; parameters: dose 5 mg/kg, route po; conditions: in vivo
[32] = Cmax in Beagle dog at 5 mg/kg, po administered as spray-dried dispersion in 99.5% water/0.5% methocel E4M by LC-MS/MS analysis; assay type: ADME, organism-based, Canis lupus familiaris; parameters: dose 5 mg/kg, route po; conditions: in vivo
[33] = Oral bioavailability in Beagle dog at 5 mg/kg administered as spray-dried dispersion in 99.5% water/0.5% methocel E4M by LC-MS/MS analysis; assay type: ADME, organism-based, Canis lupus familiaris; conditions: in vivo
[34] = Protein binding in human plasma by ultracentrifugation method; assay type: ADME, cell-free; conditions: read-out: PPB

Compound | EC50 [1] [nM] | EC50 [2] [nM] | EC50 [3] [nM] | EC50 [4] [nM] | fold change (FC) [5] | CC50 [6] [nM] | EC50 [7] [nM] | EC50 [8] [nM] | half-life at 0.5 µM [9] [h] | half-life at 0.5 µM [10] [h] | half-life at 0.5 µM [11] [h] | fraction unbound at 1 h, 0.053 µM [12] | clearance [13] [mL/min/kg] | Vd [14] [L/kg] | MRT [15] [h] | EC50 [16] [nM] | EC50 [17] [nM] | solubility [18] [µM] | solubility [19] [µM] | half-life [20] [h] | also measured
C=C(C)[C@@H]1CC[C@]2(C(=O)NCCO)CC[C@]3(C)[C@H](CC[C@@H]4[C@@]5(C)CC=C(c6ccc(C(=O)O)cc6)C(C)(C)[C@@H]5CC[C@]43C)[C@@H]12 | 41 | > 2000 |  |  |  |  |  |  |  |  |  |  |  |  |  |  |  |  |  |  | 
C=C(C)[C@@H]1CC[C@]2(C(=O)NCCOC)CC[C@]3(C)[C@H](CC[C@@H]4[C@@]5(C)CC=C(c6ccc(C(=O)O)cc6)C(C)(C)[C@@H]5CC[C@]43C)[C@@H]12 | 152 |  |  |  |  |  |  |  |  |  |  |  |  |  |  |  |  |  |  |  | 
C=C(C)[C@@H]1CC[C@]2(NCCN3CCS(=O)(=O)CC3)CC[C@]3(C)[C@H](CC[C@@H]4[C@@]5(C)CC=C(C6=CC[C@@](CF)(C(=O)O)CC6)C(C)(C)[C@@H]5CC[C@]43C)[C@@H]12 |  | 3 | 3 | 7 | 4.6 | 15600 | 26 | 3 | 1.83 | 1.45 | 1.47 | 0.14 | 6.5 | 1.8 | 4.9 |  |  |  |  |  | 
C=C(C)[C@@H]1CC[C@]2(NCC[C@]3(O)CC[C@](C)(O)CC3)CC[C@]3(C)[C@H](CC[C@@H]4[C@@]5(C)CC=C(C6=CC[C@](CF)(C(=O)O)CC6)C(C)(C)[C@@H]5CC[C@]43C)[C@@H]12 |  | 6 | 2.1 | 8.1 | 6.3 | 16000 | 8 | 5.1 | > 2 | > 2 | > 2 | 0.11 | 3.7 | 0.8 | 3.6 | 13 | 3.8 | < 1 | > 480 | 3.9 | AUC(0-t) [21]: 6.19 µM·h; Cmax [22]: 720 nM; bioavailability [23]: 20%
C=C(C)[C@@H]1CC[C@]2(NCCC3(O)COC3)CC[C@]3(C)[C@H](CC[C@@H]4[C@@]5(C)CC=C(C6=CC[C@](CF)(C(=O)O)CC6)C(C)(C)[C@@H]5CC[C@]43C)[C@@H]12 |  | 5.3 | 1.7 | 7 | 10 | 18000 | 6.6 | 6.1 | > 2 | 1.33 | > 2 | 0.12 | 6.5 | 1 | 2.7 | 17 | 4.1 | 4 (≈ 2.66 µg/mL) | 32 (≈ 21.3 µg/mL) | 3.6 | AUC(0-t) [21]: 27.3 µM·h; Cmax [22]: 3860 nM; bioavailability [23]: 140%
C=C(C)[C@@H]1CC[C@]2(NCC[C@]3(O)CC[C@@H](S(C)(=O)=O)CC3)CC[C@]3(C)[C@H](CC[C@@H]4[C@@]5(C)CC=C(C6=CC[C@](CF)(C(=O)O)CC6)C(C)(C)[C@@H]5CC[C@]43C)[C@@H]12 | 3 | 5.1 | 1.6 | 6.4 | 5.8 | 21000 | 4.3 | 4.5 | 1.38 | 1.42 | > 2 | 0.11 | 3.5 | 0.8 | 3.8 | 9.3 | 2 | 21 (≈ 16.2 µg/mL) | > 700 | 4.2 | AUC(0-t) [21]: 8.11 µM·h; Cmax [22]: 830 nM; bioavailability [23]: 24%; clearance [24]: 0.38 mL/min/kg; Vd [25]: 0.31 L/kg; half-life [26]: 13.4 h; MRT [27]: 13.2 h; AUC(0-t) [28]: 23.3 µM·h; Cmax [29]: 1610 nM; bioavailability [30]: 21%; AUC(0-t) [31]: 35.3 µM·h; Cmax [32]: 1960 nM; bioavailability [33]: 31%
C=C(C)[C@@H]1CC[C@]2(C(=O)O)CC[C@]3(C)[C@H](CC[C@@H]4[C@@]5(C)CC[C@H](OC(=O)CC(C)(C)C(=O)O)C(C)(C)[C@@H]5CC[C@]43C)[C@@H]12 [BEVIRIMAT] |  |  |  |  | 97 |  |  |  |  |  |  |  |  |  |  |  |  |  |  |  | fraction unbound [34]: < 0.001
